“Also recorded” adds a separate entry of the source.
Experiments:
healthy volunteers [1] = assay: Example 1 clinical trial, 5-hour advance in bedtime: dim light melatonin onset (DLMO) from plasma melatonin; format: in vivo, human
Description: (§1) A clinical trial was conducted to assess the safety of MA-1 as well as to determine the ability of MA-1 to shift the sleep/wake cycle following a 5-hour advance in bedtime. The study was a randomized, double-blind, parallel group, placebo-controlled study. It consisted of a 2-4-week outpatient screening period followed by an 8-day inpatient stay. After acclimating to the sleep lab, bedtime was advanced by 5 hours. The primary objectives of this study were to investigate the exposure-response to MA-1 on advancement of circadian release of endogenous melatonin rhythm as measured by dim light melatonin onset (DLMO, a biomarker of the sleep-wake cycle), to investigate the exposure-response to MA-1 on mean sleep efficiency parameters as measured by PSG, to investigate the exposure-response to MA-1 on objective neurobehavioral performance lapses during scheduled work-time as measured by computerized continuous performance testing, and to assess the safety and tolerability of MA-1. Forty-five healthy volunteers, men and women aged 18-50, were enrolled into this study. Thirty-nine subjects were randomized.
The study was designed to assess the safety and efficacy of four oral doses of MA-1 (10 mg, 20 mg, 50 mg and 100 mg) compared to matching placebo on circadian phase shift, sleep parameters during the major sleep episode, and subject alertness. After written informed consent was signed, subjects that met the inclusion/exclusion criteria at screening and baseline were enrolled into the 8-day in-patient portion of the study. All in-patient assessments were conducted in a time-isolation sleep lab in which no time cues were available to subjects. During the first three nights, subjects were given placebo 30 minutes prior to bedtime (11:00 PM) in a single-blind fashion. Baseline assessments for the efficacy parameters were measured during this period. At 5:00 PM on day 3, subjects started a 19 hour Pre-constant posture (CP) segment during which time the subjects remained seated in a semi-recumbent position and blood samples were collected approximately every hour from 7:00 AM to 12:00 PM. The purpose of the pre-CP segment is to provide a measure of each subject's circadian phase before the start of the night shift segment. On day 4, subjects were randomized to once daily treatment in one of the five treatment groups. In addition, subject sleep-wake routines were advanced 5 hours, such that subjects were required to sleep from approximately 6:00 PM-2:00 AM. […] Safety was assessed throughout the study, at the end of study (EOS) visit on day 8, and at the Follow-up visit. […]
To assess circadian sleep-wake cycles in the study, plasma melatonin levels were assessed. […] To assess the effects of MA-1 on the sleep-wake cycles, DLMO was monitored in subjects before and after treatment. […]

[2] = system: preclinical models of acute phase-shifting and chronic re-entrainment; conditions: cited from earlier work
MT1R melatonin receptor = MT1R melatonin receptor (Homo sapiens, UniProt P48039); conditions: cited from earlier work
[3] = system: elderly patients with primary insomnia; conditions: 28-day Phase II study; cited from earlier work
Solubility = format: physicochemical
[4] = system: healthy male and female subjects with induced transient insomnia; assay: Example 2 study of single oral doses in induced transient insomnia: polysomnography; format: in vivo, human
Description: (§2) A multi-center, randomized, double-blind, placebo-controlled, parallel-group study was conducted to investigate the efficacy and safety of single oral doses of VEC-162 (20, 50, and 100 mg) and matching placebo in healthy male and female subjects with induced transient insomnia. Approximately four hundred subjects were randomized in approximately a 1:1:1:1 ratio to the treatment groups.
(§3) In general, a screening period began 14 to 35 days prior to the start of the evaluation period, which was Day 1. Prior to Day 1, subjects were asked to increase their sleep time to 9 hours per night. Drug, or placebo, was administered on Night 1, approximately 0.5 hour prior to lights off.
The primary efficacy variable was LPS. LPS is defined as the length of time elapsed between lights off and onset of persistent sleep. In this trial, persistent sleep is defined as the point at which 10 minutes of uninterrupted sleep has begun. Sleep was determined on the basis of polysomnography (PSG).
Secondary efficacy parameters included the following: • Wake After Sleep Onset (WASO): WASO is defined as the time spent awake between onset of sleep and Lights On during Night 1, determined by PSG. • Latency to Non-Awake (LNA): LNA is defined as the number of minutes to reach any stage of sleep. • Total Sleep Time (TST): TST is defined as the number of minutes spent asleep during the entire time in bed.

[5] = Example 1 clinical trial: exposure (Cmax, AUC); format: in vivo, human
Description: as §1
The differences in DLMO25% between the endpoint day (Nights 4, 5 and 6) and baseline (Night 3) were analyzed by comparing pairwise each dose group to placebo using a linear one-way analysis of variance (ANOVA) model using in SAS® (SAS® Institute, Cary, North Carolina). Means were calculated using the LS Means method in SAS®. Standard deviations were calculated using the Statistical Summary function in SAS®. Other statistical tests were also presented in graphics. These included: linear regression of response vs. exposure (dose, AUC, or Cmax), Kendall-tau nonparametric regression, and Spearman nonparametric regression.

MT2R melatonin receptor = biological target: T1, MT2R melatonin receptor (Homo sapiens, UniProt P49286); conditions: cited from earlier work
T1 sequence (P49286 1-362): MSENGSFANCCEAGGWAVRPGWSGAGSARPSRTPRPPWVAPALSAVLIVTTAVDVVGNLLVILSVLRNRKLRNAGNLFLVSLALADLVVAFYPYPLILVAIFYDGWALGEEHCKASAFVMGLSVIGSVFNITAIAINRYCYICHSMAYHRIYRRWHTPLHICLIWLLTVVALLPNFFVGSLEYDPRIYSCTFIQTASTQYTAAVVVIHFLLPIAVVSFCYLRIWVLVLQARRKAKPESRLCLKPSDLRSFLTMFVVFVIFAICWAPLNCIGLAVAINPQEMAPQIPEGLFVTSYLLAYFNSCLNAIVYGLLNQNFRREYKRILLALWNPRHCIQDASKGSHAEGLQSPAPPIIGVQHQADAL

[6] = system: healthy male and female subjects with induced transient insomnia; assay: Example 2 study: tolerability; format: in vivo, human; conditions: single oral doses 20, 50 and 100 mg
Description: as §2, §3

healthy volunteers [7] = conditions: cited from earlier work
[8] = 50 mg; cited from earlier work
healthy volunteers [9] = assay: Example 1 clinical trial, 5-hour advance in bedtime: polysomnography (sleep efficiency, sleep latency, WASO, sleep architecture); conditions: human, in vivo
Description: as §1, with “Thirty-nine subjects were randomized.” left out
The study was designed to assess the safety and efficacy of four oral doses of MA-1 (10 mg, 20 mg, 50 mg and 100 mg) compared to matching placebo on circadian phase shift, sleep parameters during the major sleep episode, and subject alertness. […] Baseline assessments for the efficacy parameters were measured during this period. […]

Chain of MT1R melatonin receptor (P48039 whole entry): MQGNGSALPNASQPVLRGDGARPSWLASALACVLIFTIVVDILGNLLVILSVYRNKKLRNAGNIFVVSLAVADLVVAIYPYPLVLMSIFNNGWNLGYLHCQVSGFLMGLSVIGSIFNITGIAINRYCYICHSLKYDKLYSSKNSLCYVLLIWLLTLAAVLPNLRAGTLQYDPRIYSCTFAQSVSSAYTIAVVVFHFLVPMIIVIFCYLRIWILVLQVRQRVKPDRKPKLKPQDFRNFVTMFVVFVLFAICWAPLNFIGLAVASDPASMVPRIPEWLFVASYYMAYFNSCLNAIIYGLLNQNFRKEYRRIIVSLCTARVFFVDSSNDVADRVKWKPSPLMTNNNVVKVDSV

CCC(=O)NC[C@@H]1C[C@H]1c1cccc2c1CCO2 [MA-1, (1R-trans)-N-[[2-(2,3-dihydro-4-benzofuranyl)cyclopropyl]methyl]propanamide]
Change in DLMO25%, LOQ5 between Night 4 and Night 3 (healthy volunteers [1]; 10 mg oral, N = 8, mean): 0.18 h
Change in DLMO25%, LOQ5 between Night 4 and Night 3 (healthy volunteers [1]; 20 mg oral, N = 7, mean): -1.14 h
Change in DLMO25%, LOQ5 between Night 4 and Night 3 (healthy volunteers [1]; 50 mg oral, N = 4, mean): -0.50 h
Change in DLMO25%, LOQ5 between Night 4 and Night 3 (healthy volunteers [1]; 100 mg oral, N = 5, mean ± SD): -2.74 ± 1.95 h
Chronobiotic activity [2]: potent chronobiotic activity
Agonist activity at MT1R (MT1R melatonin receptor): specific and potent agonist
Sleep latency and number of nocturnal awakenings versus placebo [3]: did not differentiate from placebo
Effect of pH on aqueous solubility (Solubility): practically unaffected by pH
Efficacy compared with 100 mg ([4]; 20 mg single oral dose): comparable or superior to 100 mg
Efficacy compared with 100 mg ([4]; 50 mg single oral dose): more efficacious than 100 mg
Exposure levels: effect of covariates ([5]; human, in vivo): not affected by age, weight, height, gender, creatinine clearance, or ALT baseline levels
AUC versus dose ([5]; oral doses 10-100 mg): increased approximately proportional to dose
Cmax versus dose ([5]; oral doses 10-100 mg): increased in a manner approximately proportional to the dose
Agonist activity at MT2R (MT2R melatonin receptor): specific and potent agonist
Tolerability [6]: well-tolerated at all doses
Tolerability, multiple doses (healthy volunteers [7]; multiple doses up to 150 mg, up to 28 days): safety and tolerability of MA-1 at doses up to 150 mg has been demonstrated; also recorded: well-tolerated
Tolerability, single doses (healthy volunteers [7]; single oral doses up to 300 mg, healthy volunteers): safe and well tolerated
Shift of circadian rhythms [8]: consistently shifted circadian rhythms
Percentage of time in each sleep stage between Night 4 and Night 2 (healthy volunteers [9]): did not change
